Reference: ChEMBL document CHEMBL1121874, “Importance of the aromatic ring in adrenergic amines. 5. Nonaromatic analogues of phenylethanolamine as inhibitors of phenylethanolamine N-methyltransferase: role of hydrophobic and steric interactions” (J Med Chem, 1981)

T1: Phenylethanolamine N-methyltransferase (Bos taurus, UniProt P10938)
T1 sequence (P10938 whole entry): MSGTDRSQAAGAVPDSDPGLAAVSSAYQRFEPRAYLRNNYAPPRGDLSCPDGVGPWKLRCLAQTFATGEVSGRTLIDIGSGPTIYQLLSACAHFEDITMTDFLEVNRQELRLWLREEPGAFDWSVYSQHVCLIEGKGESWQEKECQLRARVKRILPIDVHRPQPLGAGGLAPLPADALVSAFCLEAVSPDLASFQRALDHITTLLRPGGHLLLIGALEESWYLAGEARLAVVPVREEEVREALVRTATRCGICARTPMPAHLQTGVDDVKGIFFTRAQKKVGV

B1: Phenylethanolamine N-methyltransferase (Bos taurus), P10938 (protein)
chain: MSGTDRSQAAGAVPDSDPGLAAVSSAYQRFEPRAYLRNNYAPPRGDLSCPDGVGPWKLRCLAQTFATGEVSGRTLIDIGSGPTIYQLLSACAHFEDITMTDFLEVNRQELRLWLREEPGAFDWSVYSQHVCLIEGKGESWQEKECQLRARVKRILPIDVHRPQPLGAGGLAPLPADALVSAFCLEAVSPDLASFQRALDHITTLLRPGGHLLLIGALEESWYLAGEARLAVVPVREEEVREALVRTATRCGICARTPMPAHLQTGVDDVKGIFFTRAQKKVGV

Compound: NC[C@@H](O)c1ccccc1
Test: (§1) Inhibitory activity against phenylethanolamine N-methyl-transferase

| Molecule | Km |
| --- | --- |
| B1 | 136 µM |

Substrate: NCC(O)C1=C/CCCC/C=C\1
Test: (§2) Substrate activity against phenylethanolamine N-methyl-transferase was tested

| Molecule | Km |
| --- | --- |
| B1 | 128 µM |

Substrate: NCC(O)C1CCCCCCC1
Test: as §2

| Molecule | Km |
| --- | --- |
| B1 | 26 µM |

Substrate: NCC(O)/C1=C/CC/C=C\CC1
Test: as §2

| Molecule | Km |
| --- | --- |
| B1 | 155 µM |

Substrate: NCC(O)C1CC=CCC1
Test: as §2

| Molecule | Km |
| --- | --- |
| B1 | 57 µM |

Substrate: NCC(O)C1=C/C=C\C=C/C=C\1
Test: as §2

| Molecule | Km |
| --- | --- |
| B1 | 430 µM |

Substrate: NCC(O)/C1=C/CCCCCC1
Test: as §2

| Molecule | Km |
| --- | --- |
| B1 | 110 µM |

Substrate: NCC(O)C1CCCCC1
Test: as §2

| Molecule | Km |
| --- | --- |
| B1 | 40 µM |

Molecular target: T1, Phenylethanolamine N-methyltransferase
Test: as §1

| Molecule | IC50 |
| --- | --- |
| C[Si](C)(C)OC(C#N)C1CCCCCC1 (stereo unspecified) | 8 µM |
| CCC(CC)C(O)CN (stereo unspecified) | 545 µM |
| NCC1(O)CCCCCC1 | 510 µM |
| CCC(C=O)CC | 545 µM |
| NCC(O)C12CC3CC(CC(C3)C1)C2 (stereo unspecified) | 195 µM |
| CCCCCCC(C)(C#N)O[Si](C)(C)C (stereo unspecified) | 664 µM |
| O=C1CCCCCCCC1 [CYCLONONANONE] | 17 µM |
| CCCCCCC=O [HEPTANAL] | 109 µM |
| C[Si](C)(C)OC1(C#N)CCCC1 | > 1000 µM |
| CCCCC=O [PENTANAL] | 345 µM |
| C[Si](C)(C)OC1(C#N)CCCCCC1 | 510 µM |
| CCC(C)C(C)C(C#N)O[Si](C)(C)C (stereo unspecified) | 403 µM |
| CCCCCCC(O)CN (stereo unspecified) | 109 µM |
| CCCCCC(C)(O)CN (stereo unspecified) | 669 µM |
| C[Si](C)(C)OC(C#N)C1CCCCCCCC1 (stereo unspecified) | 6 µM |
| NCC(O)C1CCCCC1 (stereo unspecified) | 14 µM |
| CCC(C)C(C)C=O (stereo unspecified) | 403 µM |
| NCC(O)C1CCCCCCCCCC1 (stereo unspecified) | 9 µM |
| CCCCC(O)CN (stereo unspecified) | 345 µM |
| CCCCCC(C)(C#N)O[Si](C)(C)C (stereo unspecified) | 669 µM |
| C[Si](C)(C)OC(C#N)C1CCC1 (stereo unspecified) | > 1000 µM |
| CCC(C)C(C)C(O)CN (stereo unspecified) | 403 µM |
| O=CC12CC3CC(CC(C3)C1)C2 | 195 µM |

| Molecule | IC50 |
| --- | --- |
| C[Si](C)(C)OC1(C#N)CCCCCCCC1 | 17 µM |
| O=C1CCCC1 [CYCLOPENTANONE] | > 1000 µM |
| NCC(O)C1CCCCCCC1 (stereo unspecified) | 7 µM |
| O=C1CCCCCCC1 [CYCLOOCTANONE] | 72 µM |
| C[Si](C)(C)OC1(C#N)CCCCC1 | > 1000 µM |
| CCCCCCC(C#N)O[Si](C)(C)C (stereo unspecified) | 109 µM |
| NCC(O)C1CCC1 (stereo unspecified) | > 1000 µM |
| CCCCCCCC=O [OCTANAL] | 216 µM |
| NCC1(O)CCCCCCC1 | 72 µM |
| NCC1(O)CCCCCCCC1 | 17 µM |
| O=CC1CCC1 [CYCLOBUTANE CARBALDEHYDE] | > 1000 µM |
| CCCCCCCC(C#N)O[Si](C)(C)C (stereo unspecified) | 216 µM |
| CCCCCCC(C)=O | 664 µM |
| NCC(O)C1CCCCCC1 (stereo unspecified) | 8 µM |
| CC(C)CC(C#N)O[Si](C)(C)C (stereo unspecified) | 1000 µM |
| NCC1(O)CCCC1 | > 1000 µM |
| C[Si](C)(C)OC(C#N)C1CCCC1 (stereo unspecified) | 446 µM |
| CCC(CC)C(C#N)O[Si](C)(C)C (stereo unspecified) | 545 µM |
| O=CC1CCCCCC1 [CYCLOHEPTANE CARBALDEHYDE] | 8 µM |
| CCCCCCC(C)(O)CN (stereo unspecified) | 664 µM |
| NCC(O)C1CCCCCCCC1 (stereo unspecified) | 6 µM |
| CCCCCC(O)CN (stereo unspecified) | 314 µM |
| NCC(O)C1=C/CCCC/C=C\1 (stereo unspecified) | 57 µM |

| Molecule | IC50 |
| --- | --- |
| NCC1(O)CCCCCCCCCC1 | 8 µM |
| NCC(O)/C1=C/CCCCCC1 (stereo unspecified) | 38 µM |
| CCCCCCCC(O)CN (stereo unspecified) | 216 µM |
| CCCCCC(C#N)O[Si](C)(C)C (stereo unspecified) | 314 µM |
| C[Si](C)(C)OC1(C#N)CCCCCCC1 | 72 µM |
| O=CC1CCCCCCCCCC1 [CYCLOUNDECANE CARBALDEHYDE] | 9 µM |
| CCCCCC(C)=O | 669 µM |
| CC(C)CC(O)CN (stereo unspecified) | 1000 µM |
| C[Si](C)(C)OC(C#N)C1CCCCCCCCCC1 (stereo unspecified) | 9 µM |
| O=C1CCCCCC1 [CYCLOHEPTANONE] | 510 µM |
| NCC(O)C1=C/C=C\C=C/C=C\1 (stereo unspecified) | 760 µM |
| NCC(O)C1CC=CCC1 (stereo unspecified) | 52 µM |
| NCC(O)C1CCCC1 (stereo unspecified) | 446 µM |
| O=CC1CCCC1 [CYCLOPENTANECARBALDEHYDE] | 446 µM |
| C[Si](C)(C)OC(C#N)C12CC3CC(CC(C3)C1)C2 (stereo unspecified) | 195 µM |
| CCCCCC=O [HEXANAL] | 314 µM |
| CCCCC(C#N)O[Si](C)(C)C (stereo unspecified) | 345 µM |
| NCC1(O)CCCCC1 | > 1000 µM |
| CC(C)CC=O | 1000 µM |
| O=CC1CCCCCCCC1 [CYCLONONANECARBALDEHYDE] | 6 µM |
| NCC(O)/C1=C/CC/C=C\CC1 (stereo unspecified) | 89 µM |
| O=C1CCCCC1 [CYCLOHEXANONE] | > 1000 µM |
